Laboratory results as given in patent US12540148B2, “Lipophosphonoxins, their preparation and use” (USTAV ORGANICKE CHEMIE A BIOCHEMIE AV CR, V. V. I., priority 2019, dated 2026).
Where a name gives a salt, the structure may show the parent alone. Read-outs that look alike come from different tables or passages of the source.

Legend:
Assay type in all cases: cell-based
erythrocytes = test: Haemolytic activity of soluble samples
Description: Blood from three donors is mixed and centrifuged (10 min, 1000 g, 4° C.). The erythrocytes obtained are washed three times with NaCl solution (150 mmol·l^−1) and then used for experiments. Sample stock solutions are prepared in DMSO so that the final concentration of DMSO in NaCl is 0.5% (v/v). NaCl solution with the appropriate volume of DMSO serves as the negative control. 1% Triton-X100 is the positive control. The erythrocytes obtained are diluted to 2% with NaCl solution and pipetted into Eppendorf tubes (250 μl) with constant stirring. Samples and positive and negative controls are added to the erythrocytes prepared in this way and incubated (3 hours, 37° C.). The tubes are stirred during the incubation. After centrifugation (5 min, 1000 g), haemolytic activity is monitored by haemoglobin determination. The HC50 value is calculated from the measured absorbance values. The test is performed in triplets in three independent replicates. Iron Fe^2+ in haemoglobin is oxidized with potassium ferricyanide to iron Fe^3+ in methaemoglobin, which produces stable cyanomethaemoglobin with potassium cyanide, the concentration of which is determined spectrophotometrically. After the incubation of the erythrocytes with the substances, the cells are centrifuged (5 min, 1000 g), then Drabkin's solution (200 μl) is added to the supernatant (40 μl) and after incubation (10 min), the absorbance at 540 nm is measured.

[1] = tested on: Enterococcus faecalis ATCC 29212 = CCM 4224; test: MIC, microdilution method
Description: (§1) Disposable microtiter plates are used for testing. Samples are dissolved in infusion medium from brain and heart (BHI, HiMedia Laboraties Pvt. Ltd., Czech Republic) and Mueller-Hinton broth (HiMedia Laboraties, see above) to a final concentration ranging from 200 μg/ml to 1.5625 μg/ml. Plates are inoculated with a standard amount of test bacteria—the density of the inoculum in the well corresponds to 10^5-6 CFU/ml (colony forming units/ml, i.e. the number of viable bacterial cells/ml). MIC values are read after 24/48 hours of incubation at 37° C. as the minimum inhibitory concentration of the test substance at which bacterial growth is inhibited. The minimum bactericidal concentration (MBC) is characterized as the minimum concentration of the sample required to achieve irreversible inhibition, i.e. to kill the bacteria after a defined incubation period. MBC is determined by the inoculation method. Using an applicator, 10 μl from the well of a microtiter plate with a defined concentration of the test substance is taken to inoculate the surface of blood agar (Trios, Czech Republic). MBC is determined as the lowest concentration that inhibits the visible growth of the bacterium used on agar.

[2] = tested on: Escherichia coli ATCC 25922 = CCM 3954; test: MIC, microdilution method
Description: as §1

[3] = tested on: Staphylococcus epidermidis CCM 7221; test: MIC, microdilution method
Description: as §1

Pseudomonas aeruginosa R = test: MIC, microdilution method
Description: as §1

[4] = tested on: Staphylococcus aureus 4591; test: MIC, microdilution method
Description: as §1

[5] = tested on: Pseudomonas aeruginosa ATCC 27853 = CCM 3955; test: MIC, microdilution method
Description: as §1

[6] = tested on: Enterococcus faecium 419/ANA; test: MIC, microdilution method
Description: as §1

Escherichia coli CE5556 = test: MIC, microdilution method
Description: as §1

Enterobacter kobei 3683 = test: MIC, microdilution method
Description: as §1

[7] = tested on: Staphylococcus aureus ATCC 29213 = CCM 4223; test: MIC, microdilution method
Description: as §1

[8] = tested on: Candida albicans ATCC 90028 = CCM 8161; test: MIC, microdilution method
[9] = Staphylococcus epidermidis, CCM7221

Row | Compound | HC50 ± SD (erythrocytes) | MIC ([1]; Enterococcus faecalis) | MIC ([2]; Escherichia coli) | MIC [3, 9] | MIC (Pseudomonas aeruginosa R; Pseudomonas aeruginosa) | MIC ([4]; Staphylococcus aureus, 4591) | MIC ([5]; Pseudomonas aeruginosa) | MIC ([6]; Enterococcus faecium, 419/ANA) | MIC (Escherichia coli CE5556; Escherichia coli, CE5556) | MIC (Enterobacter kobei 3683; Enterobacter kobei, 3683) | MIC ([7]; Staphylococcus aureus) | MIC ([8]; Candida albicans) | MIC [1] | MIC [2] | MIC [3] | MIC (Pseudomonas aeruginosa R; 24/48 hours at 37° C.) | MIC [4] | MIC [5] | MIC [6] | MIC (Escherichia coli CE5556) | also measured
1 | CC(C)COP(=O)(CCN(CCCN)CCCN)OCCCCCCCCCCCCCCOP(=O)(CCN(CCCN)CCCN)OCC(C)C (stereo not drawn) [Example 51, Tetradecane-1,14-diyl diisobutyl bis((2-(bis(3-aminopropyl)amino)ethyl)-phosphonate) hexahydrochloride] | >100 | 4 µg/mL | 16 µg/mL | 0.5 µg/mL | 4 µg/mL | 2 µg/mL | 4 µg/mL | 16 µg/mL | 32 µg/mL | 64 µg/mL | 2 µg/mL | 32 µg/mL | – | – | – | – | – | – | – | – | –
2 | CCCCCCOP(=O)(CCN(CCN)CCN)OCCCCCCCCOP(=O)(CCN(CCN)CCN)OCCCCCC (stereo not drawn) [Example 55, Dihexyl octane-1,8-diyl bis((2-(bis(2-aminoethyl)amino)ethyl)phosphonate) hexahydrochloride] | >100 | 128 µg/mL | > 128 µg/mL | 2 µg/mL | 64 µg/mL | 4 µg/mL | 64 µg/mL | > 128 µg/mL | > 128 µg/mL | > 128 µg/mL | 2 µg/mL | 32 µg/mL | – | – | – | – | – | – | – | – | –
3 | Dibutyl dodecane-1,12-diyl bis((2-(bis(3-aminopropyl)amino)ethyl)-phosphonate) hexahydrochloride [Example 47] | >100 | – | – | – | – | – | – | – | – | – | – | – | 2 µg/mL | 16 µg/mL | 0.5 µg/mL | 4 µg/mL | 1 µg/mL | 4 µg/mL | 16 µg/mL | 32 µg/mL | MIC (Enterobacter kobei 3683): 128 µg/mL; MIC [7]: 1 µg/mL; MIC [8]: 16 µg/mL
4 | Dihexyl tetradecan-1,14-diyl bis((2-(bis(3-aminopropyl)amino)ethyl)-phosphonate) tetrahydrochloride [Example 54] | >100 | – | – | – | – | – | – | – | – | – | – | – | 8 µg/mL | 4 µg/mL | 0.5 µg/mL | 8 µg/mL | 1 µg/mL | 8 µg/mL | 64 µg/mL | 16 µg/mL | MIC (Enterobacter kobei 3683): >128 µg/mL; MIC [7]: 1 µg/mL; MIC [8]: 16 µg/mL
